Several values for one entry are separate records, joined by “and”; a condition that tells them apart may be missing. Identical values can stand only once.
Assays:
[1] = metabolic stability in liver microsomes; format: in vitro ADME, rat; details: for microsomal CLint at 1 µM: read-out: in vitro CLint; for half-life at 1 µM: read-out: in vitro t1/2; for CLint scaled at 1 µM: liver microsomes, read-out: Scale-up CLint
Description: (§1) Metabolic stability was assessed in mouse and rat liver microsomes. Microsomes are subcellular fractions of hepatocytes and contain CYP450s, the predominant enzymes involved in first-pass metabolism.[66] […] A plasma protein binding assay was performed to assess the extent of compound binding to plasma proteins. This is key as only unbound compound is free to distribute and exert a pharmacological effect. […] To assess the potential for this sub-class of SSAs to be developed as drugs for oral administration, Caco-2 permeability assays were also performed, as a cellular model indicative of human intestinal permeability.
Section 3: Biological methods […]
In vitro Absorption, Distribution and Metabolism
These studies were performed by Contract Research Organisation (CRO) Pharmaron. The methodology provided within the ESI is published within the express permission of this organisation. The percentage of a compound recovered during the analysis process should be 100 %; any deviation from this value indicates experimental limitations such as unintended potential non-specific binding events to experimental equipment, solubility issues, etc.
Metabolic Stability in Rat and Mouse Liver Microsomes:
The metabolic stability of compounds at a concentration of 1 µM, in rat and mouse liver […]
/ mL) in the presence and absence of cofactor (NADPH) at 37 °C. Aliquots of each incubation were removed at 0.5, 5, 15, 30 and 60 minutes. The reaction was stopped by the addition of 5 volumes of cold acetonitrile containing analytical internal standard (IS).
Samples were then centrifuged at 3 °C, 220 g for 40 minutes to remove cell debris. The supernatant was aliquoted and added to ultra-pure H2O in a 1:1 ratio in preparation for LC- […]
Samples were analysed using a Shimadzu liquid chromatography system coupled to a Triple Quad 6500+ mass spectrometry (AB Inc.) Separation of compounds was achieved using an HSS T3 column (50 x 2.1 mm) at a temperature of 40 °C and a binary mobile phase gradient […]
at a flow rate of 0.7 mL/min. […]
acid in water) and 5 % solvent B (0.1 % formic acid in acetonitrile). […]
solvent B at 0.7 minutes, held for 0.5 minutes and then immedi ately returned to initial conditions. Sample analysis was by electrospray ionisation. […]

S. aureus ATCC 9144 = test: inhibition of bacterial growth, OD600 after 20 h; format: cell-based, Staphylococcus aureus; details: SSA 5.0 mM, 2.5% ethanol, negative = enhanced growth; for inhibition at 5000 µM: Staphylococcus aureus, ATCC9144, 20 h, read-out: Percentage inhibition of bacterial growth, ATCC 9144 (S. aureus)
Description: (§2) With the self-associative properties of 1–10 established, the antimicrobial activity of these SSAs were determined against a panel of clinically relevant, high-priority pathogens including: P. aeruginosa PAO1; Klebsiella pneumonia (K. pneumoniae) M6; E. coli NCTC 12923; Acinetobacter baumannii (A. baumannii) ATCC 17978; S. aureus ATCC 9144; Enterococcus faecalis (E. faecalis) NCTC 775; and Enterococcus faecium (E. faecium) NCTC 12204. […] However, it should be noted that the SSA stock solution was prepared in a H2O 5% EtOH solution, to ensure that the SSA aggregates formed were in line with those characterised within the scope of the SSA self-association studies.
(§3) Section 3: Biological methods
(§4) These methods were taken directly from UK Health and Security Office (UKHSA) standard […]
(§5) Preparation of Luria Broth media (LB): Yeast extract (5.0 g), tryptone (10.0 g) and sodium chloride (10.0 g) were dissolved in dH₂O (1.0 L) then divided into bottles and autoclaved.
Preparation of Luria Broth (LB) agar plates: Agar (6.0 g) was added to LB (400 mL) and autoclaved. Once cool, the LB agar was poured into sterile petri dishes under sterile conditions and allowed to set. LB plates were stored at 4 °C until use.
Preparation of bacterial plates: Sterile LB agar plates were streaked using streaked using the desired bacteria i) Pseudomonas aeruginosa (P.aeruginosa) PAO1, ii) Klebsiella pneumoniae (K. pneumoniae) M6 iii) E. coli NCTC 12923 and iv) Acinetobacter baumannii (A. baumannii) ATCC 17978 and Gram-positive i) Staphylococcus aureus (S. aureus) ATCC 9144 ii) Enterococcus faecalis (E. faecalis) NCTC 775 and iii) Enterococcus faecium (E. faecium ) NCTC 12204, then incubated at 37 °C overnight.
Preparation of Inoculum: An initial culture was made up by inoculating LB media (5 mL) with a single colony of bacteria under sterile conditions and incubated at 37 °C with shaking overnight. The following day, overnight bacterial cultures were subcultured into fresh LB medium to a starting OD600 of 0.01.
Preparation of 96 well microplate for MIC50: The 1:100 cell suspension (150 µL) was dispensed into individual wells under sterile conditions. SSAs (30 µL) were added to the wells to equal a total volume of 180 µL in the wells. Six repeats of each concentration for each SSA were created each plate. The plates were sealed using parafilm, then incubated at 37 °C in a microplate reader for 20 hours. OD600 endpoint data was used to generate growth curves. […]

[2] = system: all Gram-positive bacteria tested; test: inhibition of bacterial growth, span over the Gram-positive panel; format: cell-based, S. aureus, E. faecalis, E. faecium; details: SSA 5.0 mM, 20 hours; read-out: inhibition against all Gram-positive bacteria tested (span)
Description: as §2, §3, §4, §5
Preparation of Luria Broth (LB) agar plates: Agar (6.0 g) was added to LB (400 mL) and autoclaved. […]
Preparation of 96 well microplate for MIC50: The 1:100 cell suspension (150 µL) was dispensed into individual wells under sterile conditions. […] The plates were sealed using parafilm, then incubated at 37 °C in a microplate reader for 20 hours. […]

Caco-2 cell line = test: bi-directional permeability in Caco-2 cell line; format: in vitro ADME, human
Description: as §1, with “permeability. […]” for “permeability.”
Sample analysis was by electrospray ionisation. […]
Bi-directional Permeability in Caco-2 Cell Line:
The bi-directional permeability in Caco-2 cell lines was determined by seeding cells onto an HTS Transwell plate. Cells were cultivated for 14-18 days in a cell culture incubator at 37 °C, 5 % CO2, 95 % relative humidity. Cell culture medium was replaced every other day. To assess monolayer integrity the transepithelial electrical resistance (TEER) across the monolayer was measured using Millicell Epithelial volt-ohm meter prior to assay and Lucifer yellow (LY) fluorescence measurement post-assay.
Test and control compounds were prepared in DMSO and diluted in Hank’s Balanced Saline […]
Solution (HBSS, pH 7.4) to a final concentration of 5 or 10 µM. Compound was added to the […]
donor compartment of the transwell plate for both apical to basolateral (A>B) and basolateral […]
to apical (B>A) measurements, with blank HBSS being added to the receiver compartment.
The transwell plate was then incubated at 37 °C, 5 % CO2 for 2 hours.

[3] = rat liver microsomes, 1 µM, 0.5 mg protein/mL
[4] = Caco-2, 5 or 10 µM, HBSS pH 7.4, 2 hours

Row | Hepatic Extraction Ratio (ER) ([1]; rat) | Predicted Hepatic CLH ([1]; rat) | microsomal CLint at 1 µM [1, 3] | half-life at 1 µM [1, 3] | Remaining percentage ([1]; rat, +Cofactors, 0.5 min) | Remaining percentage ([1]; rat, +Cofactors, 5 min) | Remaining percentage ([1]; rat, +Cofactors, 15 min) | Remaining percentage ([1]; rat, +Cofactors, 30 min) | Remaining percentage ([1]; rat, +Cofactors, 60 min) | Remaining percentage ([1]; rat, -Cofactors, 0.5 min) | Remaining percentage ([1]; rat, -Cofactors, 60 min) | CLint scaled at 1 µM ([1]; rat) | Compound | inhibition at 5000 µM (S. aureus ATCC 9144) | Percentage inhibition of bacterial growth, ATCC 9144 (S. aureus) (S. aureus ATCC 9144) | further results
1 | < 0.21 | < 0.8652 L/h/kg | < 7.5 µL/min/mg | > 3.08 h | 100.00% | 97.95% | 96.49% | 99.04% | 100.06% | 100.00% | 102.63% | < 1.1 L/h/kg | O=C(O)CC[C@H](NC(=O)Nc1ccc(Br)cc1)C(=O)O [SSA 9] |  |  | Percentage inhibition of bacterial growth, ATCC 9144 (S. aureus) (S. aureus ATCC 9144; listed as 9): 60.74% and 61%
2 | < 0.21 | < 0.8652 L/h/kg | < 7.5 µL/min/mg | > 3.08 h | 100.00% | 95.07% | 99.07% | 97.86% | 98.31% | 100.00% | 104.13% | < 1.1 L/h/kg | O=C(O)CC[C@@H](NC(=O)Nc1ccc(C(F)(F)F)cc1)C(=O)O [SSA 3] | 99.1% |  | Percentage inhibition of bacterial growth, ATCC 9144 (S. aureus) (S. aureus ATCC 9144; listed as 3): 99%
3 | < 0.21 | < 0.8652 L/h/kg |  |  | 100.00% | 95.53% | 94.28% | 97.57% | 96.64% | 100.00% | 97.74% |  | O=C(O)CC[C@H](NC(=O)Nc1ccc(C(F)(F)F)cc1)C(=O)O [SSA 2] |  | 79.71% and 80% | inhibition at 5000 µM [2]: 22 to 80%; Scale-up CLint ([1]; rat): < 1.098 L/h/kg; in vitro CLint [1, 3]: < 7.50 µL/min/mg; in vitro t1/2 [1, 3]: > 3.0797 h; Efflux Ratio (Caco-2 cell line; Caco-2): 1.71; Recovery (%) AP-BL (Caco-2 cell line; Caco-2): 99.71%; Recovery (%) BL-AP (Caco-2 cell line; Caco-2): 80.26%; Papp (A-B) (Caco-2 cell line; [4]): 0.14 10-6, cm/s; Papp (B-A) (Caco-2 cell line; [4]): 0.24 10-6, cm/s
4 | < 0.21 | < 0.8652 L/h/kg | < 7.5 µL/min/mg | > 3.08 h | 100.00% | 96.56% | 99.83% | 96.48% | 95.66% | 100.00% | 102.14% | < 1.1 L/h/kg | O=C(O)CC[C@H](NC(=O)Nc1ccc(C(F)(F)F)cc1)C(=O)O [SSA 1] | 98.7% | 99% | 
